# Marks after values point to notes of the source that are not given here.
# What was measured:
# [1] = tested on: BaF3 EML-4-ALK-L1196M xenograft tumor; test: Pharmacodynamic experiment in vivo, subcutaneous xenograft model; design: species or system BALB/c nude mouse
# Description: The model used in this trial was an engineered BALB/c nude mouse subcutaneous xenograft model of BaF3 EML-4-ALK-L1196M cells. Suspension culture of engineered BaF3 cells were carried out in vitro. […] Cell passage was processed twice a week. When the number of cells reached the requirement, the cells were collected, counted, diluted into a tumor cell suspension with a concentration of 1×10^7/ml with PBS, and carried to the animal room in an ice box for direct injection and inoculation. A 1 mL syringe was used to take the above-mentioned prepared tumor cell suspension with a concentration of 1×10^7/ml, and the tumor cell suspension was injected subcutaneously into the left forelimb armpit of the dorsal side of the mouse, 0.25 mL for each inoculation site. When the average volume of tumors reached about 160 mm^3, the drug was administered for each group, 15 mice in the vehicle group and 10 mice in each of the other administration groups.
# Mode and frequency of administration: oral gavage administration, the volume of administration was 10 mL/kg, and the model group was given an equal volume of vehicle. It was administered 1 time a day for 14 consecutive days.
# The mental, active, eating and other general conditions of the mice were observed every day, and the body weight was measured 3 times a week, and the short diameter (a) and long diameter (b) of the tumor of each mouse were measured with vernier calipers 3 times a week, and the tumor volume was calculated according to the formula (a^2×b)/2. The relative tumor volume (RTV) was calculated from the measured calculated tumor volume, RTV=Vt/V0. Wherein V0 was the tumor volume at randomization (i.e., d0) and Vt was the tumor volume at each measurement (i.e., dn). The relative tumor proliferation rate of anti-tumor activity evaluation index was calculated according to the following formula: relative tumor proliferation rate T/C (%): […]
# (Note: TRTV: RTV in the treatment group; CRTV: RTV in the model control group. According to the evaluation criteria for efficacy in the “Technical Guidelines for Non-clinical Research of Cytotoxic Antitumor Drugs” issued by the National Medical Products Administration of China, T/C %≤40% is effective).
# [2] = High temperature and illumination stability test of crystal forms 1-3; assay type: physicochemical
# Excerpt: The stabilities of crystal form 2 and crystal form 3 under high temperature, illumination and long-term conditions were investigated.
# [3] = Variable temperature XRPD of crystal form 1; assay type: physicochemical
# Description: The crystalline form 1 was tested on a hot-stage XRPD detection instrument to test the XRPD patterns under different temperature conditions, as shown in FIG. 8.
# [4] = High temperature and illumination stability test of crystal forms 1-3; assay type: physicochemical; details: Illumination (illuminance: 5000Lx), Day 0 (Table 18-1)
# Solubility test = assay type: physicochemical; details: Solution with pH = 6.8, 25° C.±2° C., dihydrate
# [5] = Vacuum drying stability test; assay type: physicochemical
# [6] = Stability test 3: long-term and accelerated conditions; assay type: physicochemical
# [7] = Comparative experiment of hygroscopicity (Chinese Pharmacopoeia 2020); assay type: physicochemical; details: dihydrate
# Excerpt: The description of hygroscopic characteristics and the definition of hygroscopic weight gain are as follows: • Deliquescence: absorbs sufficient amount of water to form a liquid; • Very hygroscopic: the weight gain by hygroscopy is not less than 15%; • Hygroscopic: the weight gain by hygroscopy is less than 15% but not less than 2%; • Slightly hygroscopic: the weight gain by hygroscopy is less than 2% but not less than 0.2%; and
# Not or almost not hygroscopic: the weight gain by hygroscopy is less than 0.2% from hygroscopicity.
# [8] = Stability test 1: open solvent atmosphere, XRPD; assay type: physicochemical; details: room temperature
# [9] = 30 mg/kg oral gavage 1 time a day, Day 3
# [10] = 30 mg/kg oral gavage 1 time a day, Day 5
# [11] = 30 mg/kg oral gavage 1 time a day, Day 7
# [12] = 30 mg/kg oral gavage 1 time a day, Day 10
# [13] = 30 mg/kg oral gavage 1 time a day, Day 12
# [14] = 30 mg/kg oral gavage 1 time a day, Day 14
# [15] = 30 mg/kg oral gavage once a day, D14
# [16] = 40 mg/kg oral gavage 1 time a day, Day 3
# [17] = 40 mg/kg oral gavage 1 time a day, Day 5
# [18] = 40 mg/kg oral gavage 1 time a day, Day 7
# [19] = 40 mg/kg oral gavage 1 time a day, Day 10
# [20] = 40 mg/kg oral gavage 1 time a day, Day 12
# [21] = 40 mg/kg oral gavage 1 time a day, Day 14
# [22] = 40 mg/kg oral gavage once a day, D14
# [23] = High temperature (50° C.), Day 10, dihydrate
# [24] = High temperature (50° C.), Day 30, dihydrate
# [25] = Illumination (illuminance: 5000Lx), Day 10, dihydrate
# [26] = Illumination (illuminance: 5000Lx), Day 30, dihydrate
# [27] = 6 months under long-term and accelerated conditions
compound,measurement,setting,value
"COc1cc(N2CCC(N3CCN(C)CC3)CC2)c(C)cc1Nc1ncc(Br)c(Nc2ccc(C)cc2P(C)(C)=O)n1 [Crystal form 1, (2-((5-bromo-2-((2-methoxy-5-methyl-4-(4-(4-methylpiperazin-1-yl)piperidin-1-yl)phenyl)amino)pyrimidin-4-yl)amino)-5-methylphenyl)dimethylphosphorus oxide dihydrate]",Tumor volume,"[1]; 30 mg/kg oral gavage 1 time a day, Day 0",160 mm^3
same,Relative tumor proliferation rate T/C,[1]; [9],28.53▴▴ %
same,Tumor volume,[1]; [9],102 mm^3
same,Relative tumor proliferation rate T/C,[1]; [10],16.41▴▴ %
same,Tumor volume,[1]; [10],89 mm^3
same,Relative tumor proliferation rate T/C,[1]; [11],8.23▴▴ %
same,Tumor volume,[1]; [11],75 mm^3
same,Relative tumor proliferation rate T/C,[1]; [12],6.61▴▴ %
same,Tumor volume,[1]; [12],91 mm^3
same,Relative tumor proliferation rate T/C,[1]; [13],6.34▴▴ %
same,Tumor volume,[1]; [13],109 mm^3
same,Relative tumor proliferation rate T/C,[1]; [14],4.85▴▴ %
same,Tumor volume,[1]; [14],101 mm^3
same,Tumor volume,[1]; [15],101 mm^3
same,relative tumor proliferation rate T/C %,[1]; [15],4.85%
same,Tumor volume,"[1]; 40 mg/kg oral gavage 1 time a day, Day 0",159 mm^3
same,Relative tumor proliferation rate T/C,[1]; [16],23.88▴▴ %
same,Tumor volume,[1]; [16],83 mm^3
same,Relative tumor proliferation rate T/C,[1]; [17],10.09▴▴ %
same,Tumor volume,[1]; [17],52 mm^3
same,Relative tumor proliferation rate T/C,[1]; [18],5.93▴▴ %
same,Tumor volume,[1]; [18],49 mm^3
same,Relative tumor proliferation rate T/C,[1]; [19],4.45▴▴ %
same,Tumor volume,[1]; [19],60 mm^3
same,Relative tumor proliferation rate T/C,[1]; [20],3.28▴▴ %
same,Tumor volume,[1]; [20],55 mm^3
same,Relative tumor proliferation rate T/C,[1]; [21],2.34▴▴ %
same,Tumor volume,[1]; [21],49 mm^3
same,Tumor volume,[1]; [22],49 mm^3
same,relative tumor proliferation rate T/C %,[1]; [22],2.34%
same,effect on the growth of BaF3 EML-4-ALK-L1196M xenograft tumor,"[1]; oral gavage once a day for 14 days, crystal form 1 30 and 40 mg/kg, compound 1 of WO2021073498A1 30.2 and 40.2 mg/kg",significantly inhibit the growth
same,Traits,"[2]; Day 0, dihydrate",off-white
same,purity,"[2]; Day 0, dihydrate",purity: 99.66%
same,total impurities,"[2]; Day 0, dihydrate",impurities: 0.34%
same,the number of impurities above the reporting limit,"[2]; Day 0, reporting limit per ICHQ3B",limit is 4 total
same,Traits,[2]; [23],off-white
same,purity,[2]; [23],purity: 99.65%;
same,the number of impurities above the reporting limit,[2]; [23],limit is 5; total
same,total impurities,[2]; [23],impurities: 0.35%
same,Traits,[2]; [24],off-white
same,purity,[2]; [24],purity: 99.53%;
same,the number of impurities above the reporting limit,[2]; [24],limit is 6; total
same,total impurities,[2]; [24],impurities: 0.47%
same,Traits,"[2]; Illumination (illuminance: 5000Lx), Day 10 (Table 18-1), dihydrate",off-white
same,Traits,[2]; [25],off-white
same,purity,[2]; [25],purity: 99.65%;
same,the number of impurities above the reporting limit,[2]; [25],limit is 5; total
same,total impurities,[2]; [25],impurities: 0.35%
same,Traits,[2]; [26],off-white
same,purity,[2]; [26],purity: 99.60%;
same,the number of impurities above the reporting limit,[2]; [26],limit is 6; total
same,total impurities,[2]; [26],impurities: 0.40%
same,crystal form on hot-stage XRPD,[3]; 50° C.,remained unchanged
same,crystal form on hot-stage XRPD,[3]; 80° C. and 120° C.,lost two moles of crystal water
same,Traits,[4],off-white
same,Solubility for 24 h,Solubility test,3260 µg/mL
same,crystal form after vacuum drying,[5]; vacuum dried at 35° C.,had not been transformed
same,moisture content after vacuum drying,[5]; vacuum drying at 35° C. for 24 h,5.26%
same,maximum single impurity,[6]; [27],≤ 0.07%
same,total impurities after 6 months of placement compared with Day 0,[6]; [27],had not increased
same,Traits,"[6]; Acceleration (40° C. ± 2° C., 75% RH ± 10% RH), Day 0",off-white
same,Traits,"[6]; Acceleration (40° C. ± 2° C., 75% RH ± 10% RH), Month 6",off-white
same,Crystal form (XRPD),"[6]; Acceleration (40° C. ± 2° C., 75% RH ± 10% RH, exposed to air and away from light), Day 0",form 1
same,Crystal form (XRPD),"[6]; Acceleration (40° C. ± 2° C., 75% RH ± 10% RH, exposed to air and away from light), Day 10",form 1
same,Crystal form (XRPD),"[6]; Acceleration (40° C. ± 2° C., 75% RH ± 10% RH, exposed to air and away from light), Month 6",form 1
same,Traits,"[6]; Long-term (25° C. ± 2° C., 65% RH ± 10% RH), Day 0, dihydrate",off-white
same,Traits,"[6]; Long-term (25° C. ± 2° C., 65% RH ± 10% RH), Month 6",off-white
same,Crystal form (XRPD),"[6]; Long-term (25° C. ± 2° C., 65% RH ± 10% RH, exposed to air and away from light), Day 0",form 1
same,Crystal form (XRPD),"[6]; Long-term (25° C. ± 2° C., 65% RH ± 10% RH, exposed to air and away from light), Day 10",form 1
same,Crystal form (XRPD),"[6]; Long-term (25° C. ± 2° C., 65% RH ± 10% RH, exposed to air and away from light), Month 6",form 1
same,Hygroscopicity,[7]; class by weight gain after 24 h,Not or almost not hygroscopic (the weight gain by hygroscopy is less than 0.2% from hygroscopicity)
same,Weight gain % after 24 h,"[7]; hygroscopicity test, 24 h",0.16%
same,Analysis of result (XRPD) Day 4,[8]; Acetone atmosphere,Crystal form 1
same,Analysis of result (XRPD) Day 6,[8]; Acetone atmosphere,Crystal form 1
same,Analysis of result (XRPD) Day 4,[8]; Ethanol atmosphere,Crystal form 1
same,Analysis of result (XRPD) Day 6,[8]; Ethanol atmosphere,Crystal form 1
same,Analysis of result (XRPD) Day 4,[8]; Ethyl acetate atmosphere,Crystal form 1
same,Analysis of result (XRPD) Day 6,[8]; Ethyl acetate atmosphere,Crystal form 1
same,Analysis of result (XRPD) Day 4,[8]; Tetrahydrofuran atmosphere,Crystal form 1
same,Analysis of result (XRPD) Day 6,[8]; Tetrahydrofuran atmosphere,Crystal form 1

# — patent US20240376138A1, “Crystal Forms, Preparation Method And Application Of Aryl Phosphine Oxide Compound” (Chengdu Di'Ao Jiuhong Pharmaceutical Factory, priority 2021, published 2024)
